Among the data in PubChem BioAssay AID330 (DTP/NCI, 2004) are T/C values, retold here.

Each structure is given as a SMILES string. Where “and” joins values, the source holds several entries; their conditions need not be identical. Equal values may be shown once. Inconclusive results and toxic doses are left out.

The test system of the test is P388 leukemia ip, CD2F1 mice, survival T/C. The test can be described thus: NCI In Vivo Anticancer Drug Screen. Data for tumor model P388 Leukemia (intraperitoneal) in CD2F1 (CDF1) mice. To be noted: endpoint: median survival time, higher = longer survival. Summed up:
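Mice carrying the transplanted tumor received test compound or vehicle. Survival was recorded in each group, and the value is the treated-group measurement divided by that of the vehicle-treated control group.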

Where [1] appears, read: dose: 50.0 mg/kg/injection, schedule: Q01DX005 (ip), vehicle: Klucel (hydroxypropylcellulose) (HPC).
The mark [2] stands for this setting: dose: 100.0 mg/kg/injection, schedule: Q01DX005 (ip), vehicle: Klucel (hydroxypropylcellulose) (HPC).
Where [3] appears, read: dose: 200.0 mg/kg/injection, schedule: Q01DX005 (ip), vehicle: Klucel (hydroxypropylcellulose) (HPC).
[4] abbreviates: dose: 6.25 mg/kg/injection, schedule: Q01DX009 (ip), vehicle: saline with Tween-80.
Setting [5] is: dose: 12.5 mg/kg/injection, schedule: Q01DX009 (ip), vehicle: saline with Tween-80.
The mark [6] stands for this setting: dose: 25.0 mg/kg/injection, schedule: Q01DX009 (ip), vehicle: saline with Tween-80.
[7] abbreviates: dose: 50.0 mg/kg/injection, schedule: Q01DX009 (ip), vehicle: saline with Tween-80.
[8] abbreviates: dose: 100.0 mg/kg/injection, schedule: Q01DX009 (ip), vehicle: saline with Tween-80.
Where [9] appears, read: dose: 200.0 mg/kg/injection, schedule: Q01DX009 (ip), vehicle: saline with Tween-80.
Where [10] appears, read: dose: 100.0 mg/kg/injection, schedule: Q01DX001 (ip), vehicle: saline with Tween-80.
[11] abbreviates: dose: 200.0 mg/kg/injection, schedule: Q01DX001 (ip), vehicle: saline with Tween-80.
The mark [12] stands for this setting: dose: 50.0 mg/kg/injection, schedule: Q01DX009 (ip), vehicle: saline.
Setting [13] is: dose: 100.0 mg/kg/injection, schedule: Q01DX009 (ip), vehicle: saline.
Setting [14] is: dose: 200.0 mg/kg/injection, schedule: Q01DX009 (ip), vehicle: saline.
Setting [15] is: dose: 25.0 mg/kg/injection, schedule: Q04DX003 (ip), vehicle: saline with Tween-80.
The mark [16] stands for this setting: dose: 50.0 mg/kg/injection, schedule: Q04DX003 (ip), vehicle: saline with Tween-80.
Setting [17] is: dose: 100.0 mg/kg/injection, schedule: Q04DX003 (ip), vehicle: Klucel (hydroxypropylcellulose) (HPC).
Setting [18] is: dose: 200.0 mg/kg/injection, schedule: Q04DX003 (ip), vehicle: Klucel (hydroxypropylcellulose) (HPC).
The mark [19] stands for this setting: dose: 400.0 mg/kg/injection, schedule: Q04DX003 (ip), vehicle: Klucel (hydroxypropylcellulose) (HPC).

Regarding `C=C1C(=O)OC2CC(C)C3(O)CCC(=O)C3(C)CC12` (stereo not given), the T/C (dose: 25.0 mg/kg/injection, schedule: Q01DX005 (ip), vehicle: Klucel (hydroxypropylcellulose) (HPC)) is 98 % of control; the T/C under setting [1] was 90 % of control; the T/C under setting [2] is 100 % of control; the T/C under setting [3] is 102 % of control.

For `CC(=O)OC1C[C@@](C)(O)[C@@]23O[C@@H]2[C@@H]2O[C@]2(C)C3C2OC(=O)C(C)[C@H]12` (stereo not given in full), the T/C (dose: 937.5 micrograms/kg/injection, schedule: Q01DX005 (ip), vehicle: Klucel (hydroxypropylcellulose) (HPC)) was 98 % of control; the T/C (dose: 1875.0 micrograms/kg/injection, schedule: Q01DX005 (ip), vehicle: Klucel (hydroxypropylcellulose) (HPC)) was 100 % of control; the T/C (dose: 3750.0 micrograms/kg/injection, schedule: Q01DX005 (ip), vehicle: Klucel (hydroxypropylcellulose) (HPC)) was 100 % of control; the T/C (dose: 7500.0 micrograms/kg/injection, schedule: Q01DX005 (ip), vehicle: Klucel (hydroxypropylcellulose) (HPC)) is 97 % of control.

For `O=C(CCSSCCC(=O)ON1C(=O)CCC1=O)ON1C(=O)CCC1=O`, the T/C was 100 % of control under setting [4], 105 % of control under setting [5] and 112 % of control under setting [6].

`CC(C)=CCc1cc(O)c(CC=C(C)C)cc1O`: the T/C under setting [6] was 101 % of control, the T/C under setting [7] was 106 % of control, the T/C under setting [8] is 96 % of control and the T/C under setting [9] was 96 % of control.

With `CN1CCC2(CC1)N=C1CCN(C)CC1S2` (stereo not given), the T/C reads like this: under setting [10], 102 % of control; under setting [11], 109 % of control.

Turning to `O=C1CN(c2ccccc2)C(=O)CN1/N=C/c1ccc(Cl)cc1`, the T/C is, setting by setting: under setting [7], 91 % of control; under setting [8], 99 % of control; under setting [9], 102 % of control.

With `COc1cccc(CSCC(=O)O)c1`, the T/C runs as follows: under setting [12], 97 % of control; under setting [13], 102 % of control; under setting [14], 92 % of control.

On to `O=c1cc(-c2ccccc2)[nH]c(=O)[nH]1`, for which the T/C reads like this: under setting [15], 99 % of control; under setting [16], 101 % of control; (dose: 100.0 mg/kg/injection, schedule: Q04DX003 (ip), vehicle: saline with Tween-80) 107 % of control.

Turning to `CCN1C(=O)C=CC1=O`, the T/C reads like this: (dose: 1.56 mg/kg/injection, schedule: Q04DX003 (ip), vehicle: saline with Tween-80) 109 % of control and 98 % of control; (dose: 3.12 mg/kg/injection, schedule: Q04DX003 (ip), vehicle: saline with Tween-80) 99 % of control and 96 % of control; (dose: 6.25 mg/kg/injection, schedule: Q04DX003 (ip), vehicle: saline with Tween-80) 99 % of control and 95 % of control.

As for `O=c1[nH]ccc2nc(-c3ccccc3)cn12`, the T/C reads like this: under setting [17], 106 % of control; under setting [18], 104 % of control; under setting [19], 105 % of control.

Turning to `COc1ccc(Cc2nnc(SC)n2-c2ccc(F)cc2)cc1OC`, the T/C runs as follows: (dose: 60.0 mg/kg/injection, schedule: Q01DX005 (ip), vehicle: saline with Tween-80) 102 % of control; (dose: 120.0 mg/kg/injection, schedule: Q01DX005 (ip), vehicle: saline with Tween-80) 95 % of control; (dose: 240.0 mg/kg/injection, schedule: Q01DX005 (ip), vehicle: saline with Tween-80) 102 % of control.

In the case of `COc1nncc(-c2cnnc(OC)n2)n1`, the T/C was 105 % of control (dose: 3.13 mg/kg/injection, schedule: Q01DX009 (ip), vehicle: saline with Tween-80); 100 % of control under setting [4]; 102 % of control under setting [5].

Take `COc1ccc(C(=O)Cc2ccccc2C#N)cc1`: the T/C is, setting by setting: (dose: 100.0 mg/kg/injection, schedule: Q04DX002 (ip), vehicle: Klucel (hydroxypropylcellulose) (HPC)) 100 % of control; (dose: 200.0 mg/kg/injection, schedule: Q04DX002 (ip), vehicle: Klucel (hydroxypropylcellulose) (HPC)) 99 % of control; (dose: 400.0 mg/kg/injection, schedule: Q04DX002 (ip), vehicle: Klucel (hydroxypropylcellulose) (HPC)) 99 % of control.

As to `CCCCNc1ccc2nnc(C)n2n1`, the T/C is, setting by setting: under setting [1], 103 % of control; (dose: 100.0 mg/kg/injection, schedule: Q01DX005 (ip), vehicle: DMSO) 98 % of control; under setting [2], 108 % of control; (dose: 200.0 mg/kg/injection, schedule: Q01DX005 (ip), vehicle: DMSO) 104 % of control; under setting [3], 100 % of control.

As for `O=C1CSC(=S)N1CCCN1CCOCC1`, the T/C reads like this: under setting [7], 104 % of control; under setting [8], 106 % of control; under setting [9], 101 % of control.

`CCN(CC)c1ccc2cc(-c3nc4ccccc4n3C)c(=O)oc2c1`: the T/C under setting [18] was 183 % of control.

In the case of `O=C1NC(=O)C2(N1)C1CCCCC2C(c2ccccc2)NC1c1ccccc1` (stereo not given), the T/C was 100 % of control under setting [10]; 98 % of control under setting [11]; 96 % of control (dose: 400.0 mg/kg/injection, schedule: Q01DX001 (ip), vehicle: saline with Tween-80).

Turning to `CCOC(=O)c1cc(N)c(C(=O)OCC)cc1N`, the T/C under setting [7] was 97 % of control; the T/C under setting [8] is 86 % of control and 96 % of control; the T/C under setting [9] was 96 % of control and 97 % of control; the T/C (dose: 400.0 mg/kg/injection, schedule: Q01DX009 (ip), vehicle: saline with Tween-80) was 92 % of control and 96 % of control.

With `NC(=O)c1nc2c(Nc3cccc(Cl)c3)nc(N)nc2nc1N`, the T/C is, setting by setting: (dose: 100.0 mg/kg/injection, schedule: Q01DX001 (ip), vehicle: saline) 100 % of control; (dose: 200.0 mg/kg/injection, schedule: Q01DX001 (ip), vehicle: saline) 104 % of control; (dose: 400.0 mg/kg/injection, schedule: Q01DX001 (ip), vehicle: saline) 104 % of control.

With `Nc1nc2ncc(CCCl)cc2c(=O)[nH]1`, the T/C was 102 % of control under setting [1], 123 % of control under setting [2] and 107 % of control under setting [3].

Regarding `CN(C)c1ccc(/C=C/c2ccnc3c(O)ccc(O)c23)cc1`, the T/C was 91 % of control under setting [5], 94 % of control under setting [6] and 92 % of control under setting [7].

Regarding `CN(C)CCN(C(=O)C(O)(c1ccccc1)c1ccccc1)c1ccccc1`, the T/C under setting [12] is 100 % of control, the T/C under setting [13] is 100 % of control and the T/C under setting [14] was 107 % of control.

As for `O=C1C(=Cc2ccc(O)cc2)C(=O)c2ccccc21`, the T/C is 97 % of control (dose: 100.0 mg/kg/injection, schedule: Q04DX002 (ip), vehicle: saline); 99 % of control (dose: 200.0 mg/kg/injection, schedule: Q04DX002 (ip), vehicle: saline); 106 % of control (dose: 400.0 mg/kg/injection, schedule: Q04DX002 (ip), vehicle: saline).

On to `c1ccc(C2(c3ccccc3)CCc3ccccc3O2)cc1`, for which the T/C under setting [17] was 105 % of control, the T/C under setting [18] was 99 % of control and the T/C under setting [19] is 99 % of control.

For the molecule `NCCCCC1(CCCCN)OCCO1`, the T/C by setting is: (dose: 12.5 mg/kg/injection, schedule: Q01DX009 (ip), vehicle: saline) 95 % of control; (dose: 25.0 mg/kg/injection, schedule: Q01DX009 (ip), vehicle: saline) 95 % of control; under setting [12], 100 % of control.

With `C=CC#CC#Cc1ccc(C#CC)s1`, the T/C (dose: 12.5 mg/kg/injection, schedule: Q01DX009 (ip), vehicle: Klucel (hydroxypropylcellulose) (HPC)) is 96 % of control; the T/C (dose: 25.0 mg/kg/injection, schedule: Q01DX009 (ip), vehicle: Klucel (hydroxypropylcellulose) (HPC)) is 100 % of control; the T/C (dose: 50.0 mg/kg/injection, schedule: Q01DX009 (ip), vehicle: Klucel (hydroxypropylcellulose) (HPC)) was 105 % of control; the T/C (dose: 100.0 mg/kg/injection, schedule: Q01DX009 (ip), vehicle: Klucel (hydroxypropylcellulose) (HPC)) was 104 % of control.

As for `O=C(C=C(C(F)(F)F)C(F)(F)F)c1ccco1`, the T/C (dose: 12.5 mg/kg/injection, schedule: Q04DX003 (ip), vehicle: saline with Tween-80) is 100 % of control; the T/C under setting [15] was 109 % of control; the T/C under setting [16] is 95 % of control.
